Laboratory results: PMC12166061, “Crystallographic fragment screening reveals ligand hotspots in TRIM21 PRY-SPRY domain” (Communications Chemistry, 2025)
Like-named read-outs stand apart in the source and are kept apart here.

Columns and labels:
Assay type in all cases: binding
[1] = biological target: T1, murine TRIM21 PRY-SPRY domain (Mus musculus, UniProt Q62191); assay: Differential scanning fluorimetry (DSF, ΔTm), mouse TRIM21 PRY-SPRY domain
T1 construct: mouse TRIM21 PRY-SPRY domain (residues V291-M470, UniProt-ID: Q62191); made in house; host or cells: E. coli BL21(DE3)
T1 sequence (Q62191 291-470): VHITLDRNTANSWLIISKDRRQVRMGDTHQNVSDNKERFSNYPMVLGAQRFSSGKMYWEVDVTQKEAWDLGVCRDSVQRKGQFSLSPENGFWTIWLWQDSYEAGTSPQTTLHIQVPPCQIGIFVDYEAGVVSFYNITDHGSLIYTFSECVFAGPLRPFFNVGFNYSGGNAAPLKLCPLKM
Procedure: (§1) Briefly, recombinant murine and human TRIM21 PRY-SPRY domain at a concentration of 8 μM were mixed with 2 mM compound in their respective SEC buffer. SYPRO Orange (5000×, Invitrogen) was added as a fluorescence probe (1 µl per mL). Subsequently, temperature-dependent protein unfolding profiles were measured using the QuantStudio™ 5 realtime PCR machine (Thermo Fisher). Excitation and emission filters were set to 465 nm and 590 nm, respectively. The temperature was raised with a step rate of 3 °C per minute. Data points were analysed with the internal software (Thermal Shift SoftwareTM Version 1.4, Thermo Fisher) using the Boltzmann equation to determine the inflection point of the transition curve.

[2] = biological target: T2, human TRIM21 PRY-SPRY domain (Homo sapiens, UniProt P19474); assay: Differential scanning fluorimetry (DSF, ΔTm), human TRIM21 PRY-SPRY domain
T2 construct: Human TRIM21 PRY-SPRY domain (residues V287-I465, UniProt-ID: P19474); His6 (N, cleaved yes); SUMO (N, cleaved yes); made in house; host or cells: E. coli BL21(DE3)
Procedure: as §1

[3] = biological target: T3, His-mTRIM21 PRYSPRY (Mus musculus, UniProt Q62191); assay: SPR fragment screening and dose response, mouse TRIM21 PRY-SPRY
T3 construct: mouse TRIM21 PRY-SPRY domain (residues V291-M470, UniProt-ID: Q62191); made in house; host or cells: E. coli BL21(DE3)
T3 sequence (Q62191 291-470): T1 sequence (Q62191 291-470)
Procedure: (§2) His-mTRIM21 PRYSPRY and His-SUMO-hTRIM21 PRY-SPRY were immobilized onto flow channels (FC) FC2, FC3, and FC4 of a Series S sensor chip NTA (Cytiva). […] Proteins (10–20 µg mL^−1 in HBS-P+) were injected at 10 µL min^−1 to achieve response levels of 3500–4300 RU for mTRIM21 and 3600–4000 RU for hTRIM21. Flow channel 1 (FC1) was used as a reference surface. Surface deactivation and nickel stripping were achieved using 1 M ethanolamine and 350 mM ethylenediaminetetraacetic acid (EDTA), respectively.
(§3) Fragment screening was conducted by injecting 500 µM fragments diluted in running buffer (HBS-P+ with 1 mM TCEP and 2% (v/v) dimethyl sulfoxide (DMSO)) over all flow-channels for 30 s at 30 µL/min^−1. To account for surface drift, 50 µM of a control compound (Suramin) was injected every 15 fragment injections, and blank injections were performed every 5 fragments. Responses were analyzed by blank subtraction, reference subtraction (FC1), solvent correction, molecular weight adjustment, and drift correction using Biacore T200 Evaluation Software v3.2.1. The binding threshold for fragment hits was set based on the Suramin-binding response level.
The data was solvent-corrected, reference-subtracted (FC1), and blank-subtracted using the T200 Evaluation Software v3.2.1. Sensorgrams were subsequently replotted using Graphpad v.9 software.

[4] = biological target: T4, His-SUMO-hTRIM21 PRY-SPRY (Homo sapiens, UniProt P19474); assay: SPR fragment screening, human TRIM21 PRY-SPRY
T4 construct: Human TRIM21 PRY-SPRY domain (residues V287-I465, UniProt-ID: P19474); made in house; host or cells: E. coli BL21(DE3)
Procedure: as §2, §3

[5] = single dose 500 µM fragment, relative response, suramin reference threshold 100 relative RU

T2 sequence (P19474 287-465): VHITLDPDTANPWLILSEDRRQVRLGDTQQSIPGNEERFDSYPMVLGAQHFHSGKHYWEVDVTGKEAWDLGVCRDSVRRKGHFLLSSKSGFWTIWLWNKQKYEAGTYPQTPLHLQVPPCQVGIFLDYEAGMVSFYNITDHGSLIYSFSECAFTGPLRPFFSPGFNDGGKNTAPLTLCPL
T4 sequence (P19474 287-465): as above

| Structure (SMILES) | Tm-shift mTRIM21 ([1]; 2 mM compound, 8 μM protein) [°C] | Tm-Shift hTRIM21 ([2]; 2 mM compound, 8 μM protein) [°C] | SPR mTRIM21 (Response) [3, 5] | SPR hTRIM21 (Response) [4, 5] | Tm-shift mTRIM21 [1] [°C] | Tm-Shift hTRIM21 [2] [°C] | SPR mTRIM21 (Response) [3] | SPR hTRIM21 (Response) [4] |
| --- | --- | --- | --- | --- | --- | --- | --- | --- |
| Cc1c(C(C)NS(C)(=O)=O)cnn1C (centres unmarked) [Fragment Z369263636] | -0.1 | 0.1 | 35.15 | 36.54 |  |  |  |  |
| CCn1cc(NC(=O)C2CCC2)cn1 [Fragment Z373768900] |  |  |  |  | -0.4 | -0.3 | 20.02 | 21.88 |
| CC(=O)NCc1ccnc(N(C)C)c1 [Fragment Z374427992] | -0.1 | -0.1 | 50.3 | 46.45 |  |  |  |  |
| CCC(=O)N1CCCC(NS(C)(=O)=O)C1 (centres unmarked) [Fragment Z405825414] | -0.2 | 0 | 27.91 | 27.61 |  |  |  |  |
| CCOc1ccccc1N1CCNCC1.Cl [Fragment Z425387594] |  |  |  |  | -0.1 | 0 | 98.47 | 61.98 |
| CC(=O)N1CCCC(CNS(C)(=O)=O)C1 (centres unmarked) [Fragment Z438096750] | 0 | -0.2 | 42.61 | 40.93 |  |  |  |  |
| O=C(c1csnn1)N1CCOCC1 [Fragment Z741055844] | -0.2 | -0.1 | 32.54 | 28.98 |  |  |  |  |
| CNS(=O)(=O)Cc1cc(C)on1 [Fragment Z763030030] |  |  |  |  | -0.2 | -0.1 | 42.23 | 44.17 |
| CC1CN(C(=O)c2cnsn2)C(C)CO1 (centres unmarked) [Fragment Z768399682] | -0.3 | 0 | 24.2 | 20.05 |  |  |  |  |
| CCOC(=O)CN1CCS(=O)(=O)CC1 [Fragment Z793778804] | 0 | 0.1 | 30.52 | 29.17 |  |  |  |  |
| O=C(O)COCc1ccccc1 [Fragment Z993967070] |  |  |  |  | -0.3 | 0 | 63.84 | 56.18 |
| CN1CCOC(CNc2nccs2)C1 (centres unmarked) [Fragment Z1002247062] | -0.1 | -0.2 | 105 | 20.86 |  |  |  |  |
| NS(=O)(=O)c1ccccc1OC(F)F [Fragment Z1003146540] | -0.1 | 0.5 | 35.49 | 38.84 |  |  |  |  |
| Cc1cc(Cn2nc(C)ccc2=O)on1 [Fragment Z1079512010] | -0.3 | -0.1 | 50.4 | 45.75 |  |  |  |  |
| CCc1nc(Cn2ccccc2=O)no1 [Fragment Z1162778919] | -0.2 | -0.1 | 48.28 | 44.97 |  |  |  |  |
| CN1CCC(Oc2cccc(F)c2)C1=O (centres unmarked) [Fragment Z1217960891] | -0.4 | -0.4 | 74.94 | 55.59 |  |  |  |  |
| CN(C)C(=O)c1ccc2c(c1)CCCN2 [Fragment Z1222331430] |  |  |  |  | -0.2 | -0.2 | 51.36 | 70.74 |
| CN(C)c1ccncc1 [Fragment Z1245793018] | 0.1 | 0 | 131.3 | 47.83 |  |  |  |  |
| CCC(NC)c1ccncc1 (centres unmarked) [Fragment Z1250132788] | 0 | -0.1 | 53.11 | 50.74 |  |  |  |  |
| Cl.O=C(c1cn[nH]c1)N1CCCC1 [Fragment Z1266933824] |  |  |  |  | -0.3 | -0.1 | 127.7 | 193.6 |
| CCc1ncc(CNC)s1 [Fragment Z1267773633] | -0.4 | -0.4 | 58.5 | 45.3 |  |  |  |  |
| c1cc(NCC2CCCO2)ccn1 (centres unmarked) [Fragment Z1267882044] | 0 | -0.1 | 85.46 | 39.64 |  |  |  |  |
| CC(=O)N1CCCC2(CCCCCC2)C1 [Fragment Z1275599911] | -1.3 | -0.9 | 32.73 | 30.21 |  |  |  |  |
| CC#CCN(C)C1CCS(=O)(=O)CC1 [Fragment Z1318110042] | 0.1 | 0 | 68.46 | 20.83 |  |  |  |  |
| COC1CN(S(=O)(=O)N2CCCC2)C1 [Fragment Z1343518214] |  |  |  |  | -0.1 | 0.2 | 38.32 | 34.32 |
| CC(=O)N1Cc2ccc(N)cc2C1 [Fragment Z1354416068] | 0 | 0.1 | 104.9 | 107.4 |  |  |  |  |
| c1cnc(N2CCC3(CCOC3)C2)cn1 (centres unmarked) [Fragment Z1401276297] | 0.2 | 0.6 | 374.2 | 640.3 |  |  |  |  |
| CC(CS(N)(=O)=O)c1ccccc1 (centres unmarked) [Fragment Z1407673036] | -0.3 | -0.4 | 43.51 | 47.04 |  |  |  |  |
| CS(=O)(=O)NC1CCOC2(CCCC2)C1 (centres unmarked) [Fragment Z1446981563] | -0.4 | -0.1 | 27.71 | 28.35 |  |  |  |  |
